The record followed here is US20260028354A1, “TETRAHYDRONAPHTHALENE DERIVATIVES AS ESTROGEN RECEPTOR DEGRADERS” (REGENT OF THE UNIVERSITY OF MICHIGAN, priority 2022, published 2026).

For one assay, the target named is ER (Homo sapiens (Human), UniProt P03372). Description: In-cell western blot analysis of ER for "B" compounds. The format is cell-based. Particulars: 16 hours, read-out: ICW DC50. Summed up:
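In-cell western: fixed cells stained with primary antibodies (2 h, RT), then anti-rabbit-680 and anti-mouse-800 secondaries (1:1000, 1 h, RT), imaged on a LI-COR plate reader. Relative ER level in treated wells expressed against untreated and DMSO-treated wells set as 100%.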

Assay [1] in a line: Cell growth assay (WST-8) for "B" compounds. The format is cell-based. Particulars: T47D, read-out: Cell growth Inhibition in T47D cell line IC50. In short, it runs like this: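 Cells seeded at 1500/well overnight, then exposed to compounds for 4 days. 10% WST-8 added for 2.5 h at 37 °C and absorbance read at 450 nm. Growth given as absorbance relative to vehicle control, from three repeats.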
Background: Formazan colour is commonly taken as a measure of viable cells.

Read-outs that look alike come from different tables or passages of the source.

For orientation: IC50 means the concentration that inhibits the measured activity by half.

Sequence of ER (P03372 whole entry): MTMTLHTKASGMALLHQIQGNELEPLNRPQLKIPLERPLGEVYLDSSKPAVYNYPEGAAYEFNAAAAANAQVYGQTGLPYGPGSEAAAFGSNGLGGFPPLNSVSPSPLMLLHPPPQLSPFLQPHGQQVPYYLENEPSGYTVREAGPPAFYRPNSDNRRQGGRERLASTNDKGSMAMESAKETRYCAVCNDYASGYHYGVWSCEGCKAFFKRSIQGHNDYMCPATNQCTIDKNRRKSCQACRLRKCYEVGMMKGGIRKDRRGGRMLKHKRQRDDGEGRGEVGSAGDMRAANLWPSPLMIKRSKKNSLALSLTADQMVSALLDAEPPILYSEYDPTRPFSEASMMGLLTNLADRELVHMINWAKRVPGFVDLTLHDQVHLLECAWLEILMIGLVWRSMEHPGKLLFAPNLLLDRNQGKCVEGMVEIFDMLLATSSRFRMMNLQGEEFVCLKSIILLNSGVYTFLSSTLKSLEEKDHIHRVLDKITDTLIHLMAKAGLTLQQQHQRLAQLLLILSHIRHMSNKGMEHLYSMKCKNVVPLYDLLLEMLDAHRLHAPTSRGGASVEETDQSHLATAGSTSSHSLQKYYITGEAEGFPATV

`O=C1CCC(N2Cc3cc4c(cc3C2=O)OC[C@@H]2CN(CC(=O)N3CCC5(C3)CN(c3ccc([C@@H]6c7ccc(O)cc7CC[C@@H]6c6ccccc6)cc3)C5)CCN42)C(=O)N1` (stereo partly drawn) [Compound B152, 3-((S)-3-(2-(2-(4-((1R,2S)-6-hydroxy-2-phenyl-1,2,3,4-tetrahydronaphthalen-1-yl)phenyl)-2,6-diazaspiro[3.4]octan-6-yl)-2-oxoethyl)-8-oxo-1,2,3,4,4a,5,8,10-octahydro-9H-pyrazino[1′,2′:4,5][1,4]oxazino[2,3-f]isoindol-9-yl)piperidine-2,6-dione]: the DC50 at ER was less than 10 nM. Also, in assay [1] (T47D cell line), the IC50 was less than 1 nM.
With `O=C1CCC(N2Cc3cc4c(cc3C2=O)CN(CC(=O)N2CCC3(CC2)CCN(c2ccc([C@@H]5c6ccc(O)cc6CC[C@@H]5c5ccccc5)cc2)CC3)C4)C(=O)N1` (stereo partly drawn) [Compound B166, 3-(6-(2-(9-(4-((1R,2S)-6-hydroxy-2-phenyl-1,2,3,4-tetrahydronaphthalen-1-yl)phenyl)-3,9-diazaspiro[5.5]undecan-3-yl)-2-oxoethyl)-1-oxo-3,5,6,7-tetrahydropyrrolo[3,4-f]isoindol-2(1H)-yl)piperidine-2,6-dione], the DC50 at ER was less than 10 nM. In addition, the IC50 in assay [1] (T47D cell line) was less than 1 nM.
The like results for `O=C1CCC(N2Cc3cc4c(cc3C2=O)OC[C@@H]2CN(CC3CC5(CCN(c6ccc([C@@H]7c8ccc(O)cc8CC[C@@H]7c7ccccc7)cc6)CC5)CO3)CCN42)C(=O)N1` (stereo partly drawn) [Compound B173, 3-((4aS)-3-((8-(4-((1R,2S)-6-hydroxy-2-phenyl-1,2,3,4-tetrahydronaphthalen-1-yl)phenyl)-2-oxa-8-azaspiro[4.5]decan-3-yl)methyl)-8-oxo-1,2,3,4,4a,5,8,10-octahydro-9H-pyrazino[1′,2′: 4,5][1,4]oxazino[2,3-f]isoindol-9-yl)piperidine-2,6-dione] were, in that order, greater than 100 nM and less than 1 nM.
In the case of `O=C1CCC(N2Cc3cc4c(cc3C2=O)OC[C@@H]2CN(C(=O)CN3CCN(c5ccc([C@@H]6c7ccc(O)cc7CC[C@@H]6c6ccccc6)cc5)CC3)CCN42)C(=O)N1` (stereo partly drawn) [Compound B144, 3-((S)-3-(2-(4-(4-((1R,2S)-6-hydroxy-2-phenyl-1,2,3,4-tetrahydronaphthalen-1-yl)phenyl)piperazin-1-yl)acetyl)-8-oxo-1,2,3,4,4a,5,8,10-octahydro-9H-pyrazino[1′,2′:4,5][1,4]oxazino[2,3-f]isoindol-9-yl)piperidine-2,6-dione], the DC50 at ER lay within 10 to 100 nM. Further, the IC50 in assay [1] (T47D cell line) was less than 1 nM.
For `O=C1CCC(N2C(=O)c3cc4c(cc3C2=O)N2C[C@@H](NCC3CC5(CCN(c6ccc([C@@H]7c8ccc(O)cc8CC[C@@H]7c7ccccc7)cc6)CC5)C3)C[C@H]2CO4)C(=O)N1` (stereo partly drawn) [Compound B329, (2S,3aS)-8-(2,6-dioxopiperidin-3-yl)-2-(((7-(4-((1R,2S)-6-hydroxy-2-phenyl-1,2,3,4-tetrahydronaphthalen-1-yl)phenyl)-7-azaspiro[3.5]nonan-2-yl)methyl)amino)-2,3,3a,4-tetrahydro-1H,7H-pyrrolo[1′,2′:4,5][1,4]oxazino[2,3-f]isoindole-7,9(8H)-dione], the DC50 on ER is greater than 100 nM. Further, in assay [1] (T47D cell line), the IC50 is greater than 10 nM.
For `O=C1CCC(N2Cc3c(ccc4c3OCC43CCN(CC(=O)N4CC5(CCN(c6ccc([C@@H]7c8ccc(O)cc8CC[C@@H]7c7ccccc7)cc6)CC5)C4)CC3)C2=O)C(=O)N1` (stereo partly drawn) [Compound B171, 3-(1′-(2-(7-(4-((1R,2S)-6-hydroxy-2-phenyl-1,2,3,4-tetrahydronaphthalen-1-yl)phenyl)-2,7-diazaspiro[3.5]nonan-2-yl)-2-oxoethyl)-6-oxo-6,8-dihydro-2H,7H-spiro[furo[2,3-e]isoindole-3,4′-piperidin]-7-yl)piperidine-2,6-dione], the DC50 at ER is less than 10 nM. Also, in assay [1], the IC50 was less than 1 nM.
As to `CN(C(=O)c1ccc2c(c1)OC[C@H]1CN(C(=O)CN3CCC4(CC3)CN(c3ccc(C5c6ccc(O)cc6CCC5c5ccccc5)cc3)C4)CCN21)C1CCC(=O)NC1=O` (stereo in doubt) [Compound B223, (4aR)-N-(2,6-dioxopiperidin-3-yl)-3-(2-(2-(4-((1S,2R)-6-hydroxy-2-phenyl-1,2,3,4-tetrahydronaphthalen-1-yl)phenyl)-2,7-diazaspiro[3.5]nonan-7-yl)acetyl)-N-methyl-1,2,3,4,4a,5-hexahydrobenzo[b]pyrazino[1,2-d][1,4]oxazine-8-carboxamide], the DC50 on ER lay within 10 to 100 nM. Further, the IC50 in assay [1] (T47D cell line) is greater than 10 nM.
Turning to `O=C1CCC(N2Cc3cc4c(cc3C2=O)OC[C@@H]2CN(C(=O)CN3CC(Oc5ccc([C@@H]6c7ccc(O)cc7CC[C@@H]6c6ccccc6)cc5)C3)CCN42)C(=O)N1` (stereo partly drawn) [Compound B151, 3-((S)-3-(2-(3-(4-((1R,2S)-6-hydroxy-2-phenyl-1,2,3,4-tetrahydronaphthalen-1-yl)phenoxy)azetidin-1-yl)acetyl)-8-oxo-1,2,3,4,4a,5,8,10-octahydro-9H-pyrazino[1′,2′:4,5][1,4]oxazino[2,3-f]isoindol-9-yl)piperidine-2,6-dione], the DC50 on ER was less than 10 nM. In addition, the IC50 in assay [1] (T47D cell line) was less than 1 nM.
In the case of `O=C1CCC(N2Cc3cc4c(cc3C2=O)OC[C@@H]2CN(CC(=O)N3CCN(c5ccc([C@@H]6c7ccc(O)cc7CC[C@@H]6c6ccccc6)cc5)CC3)CCN42)C(=O)N1` (stereo partly drawn) [Compound B145, 3-((S)-3-(2-(4-(4-((1R,2S)-6-hydroxy-2-phenyl-1,2,3,4-tetrahydronaphthalen-1-yl)phenyl)piperazin-1-yl)-2-oxoethyl)-8-oxo-1,2,3,4,4a,5,8,10-octahydro-9H-pyrazino[1′,2′:4,5][1,4]oxazino[2,3-f]isoindol-9-yl)piperidine-2,6-dione], at ER, the DC50 fell in the range of 10 to 100 nM. In addition, the IC50 in assay [1] (T47D cell line) was less than 1 nM.
Consider `O=C1CCC(N2Cc3cc4c(cc3C2=O)OC[C@@H]2CN(C(=O)CN3CC(Nc5ccc([C@@H]6c7ccc(O)cc7CC[C@@H]6c6ccccc6)cc5)C3)CCN42)C(=O)N1` (stereo partly drawn) [Compound B204, 3-((S)-3-(2-(3-((4-((1R,2S)-6-hydroxy-2-phenyl-1,2,3,4-tetrahydronaphthalen-1-yl)phenyl)amino)azetidin-1-yl)acetyl)-8-oxo-1,2,3,4,4a,5,8,10-octahydro-9H-pyrazino[1′,2′:4,5][1,4]oxazino[2,3-f]isoindol-9-yl)piperidine-2,6-dione], for which the DC50 on ER was less than 10 nM. The IC50 in assay [1] (T47D cell line) was less than 1 nM.
Regarding `O=C1CCC(N2Cc3c(ccc4c3OCC43CCN(CC4COC5(CCN(c6ccc([C@@H]7c8ccc(O)cc8CC[C@@H]7c7ccccc7)cc6)CC5)C4)CC3)C2=O)C(=O)N1` (stereo partly drawn) [Compound B229, 3-(1′-((8-(4-((1R,2S)-6-hydroxy-2-phenyl-1,2,3,4-tetrahydronaphthalen-1-yl)phenyl)-1-oxa-8-azaspiro[4.5]decan-3-yl)methyl)-6-oxo-6,8-dihydro-2H,7H-spiro[furo[2,3-e]isoindole-3,4′-piperidin]-7-yl)piperidine-2,6-dione], the DC50 at ER fell in the range of 10 to 100 nM. The IC50 in assay [1] is 1 to 10 nM.
Regarding `O=C1CC[C@H](NC(=O)c2ccc3c(c2)OC[C@H]2CN(CC4CCN(c5ccc([C@@H]6c7ccc(O)cc7CC[C@@H]6c6ccccc6)cc5)CC4)CCN32)C(=O)N1` [Compound B256, (R)-N-((S)-2,6-dioxopiperidin-3-yl)-3-((1-(4-((1R,2S)-6-hydroxy-2-phenyl-1,2,3,4-tetrahydronaphthalen-1-yl)phenyl)piperidin-4-yl)methyl)-1,2,3,4,4a,5-hexahydrobenzo[b]pyrazino[1,2-d][1,4]oxazine-8-carboxamide], the DC50 on ER lay within 10 to 100 nM. Moreover, the IC50 in assay [1] (T47D cell line) is 1 to 10 nM.
With `O=C1CC[C@H](N2Cc3c(ccc4c3OCC43CCN(CC4CCC5(CCN(c6ccc([C@@H]7c8ccc(O)cc8CC[C@@H]7c7ccccc7)cc6)CC5)OC4)CC3)C2=O)C(=O)N1` (stereo partly drawn) [Compound B366, (3S)-3-(1′-((9-(4-((1R,2S)-6-hydroxy-2-phenyl-1,2,3,4-tetrahydronaphthalen-1-yl)phenyl)-1-oxa-9-azaspiro[5.5]undecan-3-yl)methyl)-6-oxo-6,8-dihydro-2H,7H-spiro[furo[2,3-e]isoindole-3,4′-piperidin]-7-yl)piperidine-2,6-dione], the DC50 at ER was less than 10 nM. In addition, the IC50 in assay [1] was less than 1 nM.
As for `O=C1CCC(N2Cc3c(ccc4c3OCC43CCN(CC(=O)N4CC5(CC(Nc6ccc([C@@H]7c8ccc(O)cc8CC[C@@H]7c7ccccc7)cc6)C5)C4)CC3)C2=O)C(=O)N1` (stereo partly drawn) [Compound B170, 3-(1′-(2-(6-((4-((1R,2S)-6-hydroxy-2-phenyl-1,2,3,4-tetrahydronaphthalen-1-yl)phenyl)amino)-2-azaspiro[3.3]heptan-2-yl)-2-oxoethyl)-6-oxo-6,8-dihydro-2H,7H-spiro[furo[2,3-e]isoindole-3,4′-piperidin]-7-yl)piperidine-2,6-dione], the DC50 at ER was less than 10 nM. Besides, the IC50 in assay [1] is less than 1 nM.
For `O=C1CCC(N2Cc3c(ccc4c3OCC43CCN(CC(=O)N4CCC5(CC4)CN(c4ccc([C@@H]6c7ccc(O)cc7CC[C@@H]6c6ccccc6)cc4)C5)CC3)C2=O)C(=O)N1` (stereo partly drawn) [Compound B213, 3-(1′-(2-(2-(4-((1R,2S)-6-hydroxy-2-phenyl-1,2,3,4-tetrahydronaphthalen-1-yl)phenyl)-2,7-diazaspiro[3.5]nonan-7-yl)-2-oxoethyl)-6-oxo-6,8-dihydro-2H,7H-spiro[furo[2,3-e]isoindole-3,4′-piperidin]-7-yl)piperidine-2,6-dione], the DC50 on ER is less than 10 nM. For the same compound, the IC50 in assay [1] was less than 1 nM.
